The values below come from US9499550B2 (BRISTOL-MYERS SQUIBB COMPANY, priority 2012, dated 2016).

In assay [1] the test system is HCV genotype 1b (Con1) replicon in HUH-7 cells. The assay can be described thus: HCV replicon luciferase reporter assay, genotype 1b. The note with it: Hepatitis C virus, Huh-7, 72 h, HCV genotype 1b replicon luciferase assay, 3 days incubation, range class, read-out: LE_1b (EC50, range). In kind it is cell-based. Summed up: (§1)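 Replicon inhibition for both genotypes was measured as Renilla luciferase signal (EnduRen, 7.5 μM final, 2 h) after 3-day, 37° C exposure of replicon-bearing HUH-7 cells in 4% FCS DMEM, 0.5% DMSO. The 1b construct carries S1179I; the 1a H77 construct carries P1496L and S2204I. Twenty-point, 3-fold dilutions were fitted four-parametrically for EC50, and CC50 was taken from multiplexed Cell Titer-Blue.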
(Replicon systems follow genome replication, usually without infectious particles.)

Assay [2] has as its system HCV genotype 1a (H77 strain) replicon in HUH-7 cells. In words: HCV replicon luciferase reporter assay, genotype 1a. It is filed as cell-based. The note with it: Hepatitis C virus, Huh-7, 72 h, HCV genotype 1a replicon luciferase assay, 3 days incubation, range class, read-out: LE_1a (EC50, range). Summed up: as §1

Molecules are shown by their SMILES.

As for `COc1ccc2c(O[C@@H]3C[C@H]4C(=O)N[C@]5(C(=O)NS(=O)(=O)C6CC6)C[C@H]5/C=C\CC[C@@H](C)C[C@@H](C)[C@H](NC(=O)OC(C)(C)C)C(=O)N4C3)nc(N3CCOCC3)cc2c1` [Compound 3107, tert-butyl ((2R,6S,7R,9R,13aS,14aR,16aS,Z)-14a-((cyclopropylsulfonyl)carbamoyl)-2-((6-methoxy-3-morpholinoisoquinolin-1-yl)oxy)-7,9-dimethyl-5,16-dioxo-1,2,3,5,6,7,8,9,10,11,13a,14,14a,15,16,16a-hexadecahydrocyclopropa[e]pyrrolo[1,2-a][1,4]diazacyclopentadecin-6-yl)carbamate], the half-maximal effective concentration (EC50) in assay [1] and in assay [2] was less than 5.46 nM throughout.

For `COc1ccc2c(O[C@@H]3C[C@H]4C(=O)N[C@]5(C(=O)NS(=O)(=O)C6(C)CC6)C[C@H]5/C=C\CC[C@H](C)C[C@@H](C)[C@H](NC(=O)OC(C)(C)C)C(=O)N4C3)nc(N(C)C)cc2c1` [Compound 3108, tert-butyl ((2R,6S,7R,9S,13aS,14aR,16aS,Z)-2-((3-(dimethylamino)-6-methoxyisoquinolin-1-yl)oxy)-7,9-dimethyl-14a-(((1-methylcyclopropyl)sulfonyl)carbamoyl)-5,16-dioxo-1,2,3,5,6,7,8,9,10,11,13a,14,14a,15,16,16a-hexadecahydrocyclopropa[e]pyrrolo[1,2-a][1,4]diazacyclopentadecin-6-yl)carbamate], the EC50 in assay [1] and in assay [2] was 4.82 to 103 nM throughout.

As to `COc1ccc2c(O[C@@H]3C[C@H]4C(=O)N[C@]5(C(=O)NS(=O)(=O)C6(C)CC6)C[C@H]5/C=C\CC[C@@H](C)C[C@@H](C)[C@H](NC(=O)OC(C)(C)C)C(=O)N4C3)nc(N(C)C)cc2c1` [Compound 3109, tert-butyl ((2R,6S,7R,9R,13aS,14aR,16aS,Z)-2-((3-(dimethylamino)-6-methoxyisoquinolin-1-yl)oxy)-7,9-dimethyl-14a-(((1-methylcyclopropyl)sulfonyl)carbamoyl)-5,16-dioxo-1,2,3,5,6,7,8,9,10,11,13a,14,14a,15,16,16a-hexadecahydrocyclopropa[e]pyrrolo[1,2-a][1,4]diazacyclopentadecin-6-yl)carbamate], the EC50 in assay [1] and in assay [2] was 4.82 to 103 nM in each case.

On to `COc1ccc2c(O[C@@H]3C[C@H]4C(=O)N[C@]5(C(=O)NS(=O)(=O)C6(C)CC6)C[C@H]5/C=C\CC[C@H](C)C[C@@H](C)[C@H](NC(=O)O[C@@H]5C[C@@H]6C[C@@H]6C5)C(=O)N4C3)nc(N(C)C)cc2c1` [Compound 3110, (1R,3r,5S)-bicyclo[3.1.0]hexan-3-yl((2R,6S,7R,9S,13aS,14aR,16aS,Z)-2-((3-(dimethylamino)-6-methoxyisoquinolin-1-yl)oxy)-7,9-dimethyl-14a-(((1-methylcyclopropyl)sulfonyl)carbamoyl)-5,16-dioxo-1,2,3,5,6,7,8,9,10,11,13a,14,14a,15,16,16a-hexadecahydrocyclopropa[e]pyrrolo[1,2-a][1,4]diazacyclopentadecin-6-yl)carbamate], for which the EC50 in assay [1] and in assay [2] was 4.82 to 103 nM each time.

With `COc1ccc2c(O[C@@H]3C[C@H]4C(=O)N[C@]5(C(=O)NS(=O)(=O)C6(C)CC6)C[C@H]5/C=C\CC[C@@H](C)C[C@@H](C)[C@H](NC(=O)O[C@@H]5C[C@@H]6C[C@@H]6C5)C(=O)N4C3)nc(N(C)C)cc2c1` [Compound 3111, (1R,3r,5S)-bicyclo[3.1.0]hexan-3-yl((2R,6S,7R,9R,13aS,14aR,16aS,Z)-2-((3-(dimethylamino)-6-methoxyisoquinolin-1-yl)oxy)-7,9-dimethyl-14a-(((1-methylcyclopropyl)sulfonyl)carbamoyl)-5,16-dioxo-1,2,3,5,6,7,8,9,10,11,13a,14,14a,15,16,16a-hexadecahydrocyclopropa[e]pyrrolo[1,2-a][1,4]diazacyclopentadecin-6-yl)carbamate], the EC50 is 4.82 to 103 nM in assay [1] and less than 5.46 nM in assay [2].

Take `COc1ccc2c(O[C@@H]3C[C@H]4C(=O)N[C@]5(C(=O)NS(=O)(=O)C6(C)CC6)C[C@H]5/C=C\CC[C@H](C)C[C@@H](C)[C@H](NC(=O)O[C@H](C)C(F)(F)F)C(=O)N4C3)nc(N(C)C)cc2c1` [Compound 3112, (R)-1,1,1-trifluoropropan-2-yl ((2R,6S,7R,9S,13aS,14aR,16aS,Z)-2-((3-(dimethylamino)-6-methoxyisoquinolin-1-yl)oxy)-7,9-dimethyl-14a-(((1-methylcyclopropyl)sulfonyl)carbamoyl)-5,16-dioxo-1,2,3,5,6,7,8,9,10,11,13a,14,14a,15,16,16a-hexadecahydrocyclopropa[e]pyrrolo[1,2-a][1,4]diazacyclopentadecin-6-yl)carbamate]: the EC50 in assay [1] and in assay [2] was 4.82 to 103 nM throughout.

On to `COc1ccc2c(O[C@@H]3C[C@H]4C(=O)N[C@]5(C(=O)NS(=O)(=O)C6(C)CC6)C[C@H]5/C=C\CC[C@@H](C)C[C@@H](C)[C@H](NC(=O)O[C@H](C)C(F)(F)F)C(=O)N4C3)nc(N(C)C)cc2c1` [Compound 3113, (R)-1,1,1-trifluoropropan-2-yl ((2R,6S,7R,9R,13aS,14aR,16aS,Z)-2-((3-(dimethylamino)-6-methoxyisoquinolin-1-yl)oxy)-7,9-dimethyl-14a-(((1-methylcyclopropyl)sulfonyl)carbamoyl)-5,16-dioxo-1,2,3,5,6,7,8,9,10,11,13a,14,14a,15,16,16a-hexadecahydrocyclopropa[e]pyrrolo[1,2-a][1,4]diazacyclopentadecin-6-yl)carbamate], for which the EC50 in assay [1] was 4.82 to 103 nM; in assay [2] it was less than 5.46 nM.

Regarding `[2H]C([2H])([2H])C(OC(=O)N[C@@H]1C(=O)N2C[C@H](Oc3nc(N(C)C)cc4cc(OC)ccc34)C[C@H]2C(=O)N[C@]2(C(=O)NS(=O)(=O)C3(C)CC3)C[C@H]2/C=C\CC[C@H](C)C[C@H]1C)(C([2H])([2H])[2H])C(F)(F)F` [Compound 3114, 1,1,1,3,3,3-hexadeutero-2-(trifluoromethyl)propan-2-yl((2R,6S,7R,9S,13aS,14aR,16aS,Z)-2-((3-(dimethylamino)-6-methoxyisoquinolin-1-yl)oxy)-7,9-dimethyl-14a-(((1-methylcyclopropyl)sulfonyl)carbamoyl)-5,16-dioxo-1,2,3,5,6,7,8,9,10,11,13a,14,14a,15,16,16a-hexadecahydrocyclopropa[e]pyrrolo[1,2-a][1,4]diazacyclopentadecin-6-yl)carbamate], the EC50 in assay [1] and in assay [2] was 4.82 to 103 nM throughout.

Consider `[2H]C([2H])([2H])C(OC(=O)N[C@@H]1C(=O)N2C[C@H](Oc3nc(N(C)C)cc4cc(OC)ccc34)C[C@H]2C(=O)N[C@]2(C(=O)NS(=O)(=O)C3(C)CC3)C[C@H]2/C=C\CC[C@@H](C)C[C@H]1C)(C([2H])([2H])[2H])C(F)(F)F` [Compound 3115, 1,1,1,3,3,3-hexadeutero-2-(trifluoromethyl)propan-2-yl((2R,6S,7R,9R,13aS,14aR,16aS,Z)-2-((3-(dimethylamino)-6-methoxyisoquinolin-1-yl)oxy)-7,9-dimethyl-14a-(((1-methylcyclopropyl)sulfonyl)carbamoyl)-5,16-dioxo-1,2,3,5,6,7,8,9,10,11,13a,14,14a,15,16,16a-hexadecahydrocyclopropa[e]pyrrolo[1,2-a][1,4]diazacyclopentadecin-6-yl)carbamate], for which the 50% effective concentration (EC50) in assay [1] and in assay [2] was 4.82 to 103 nM throughout.

For `COc1ccc2c(O[C@@H]3C[C@H]4C(=O)N[C@]5(C(=O)NS(=O)(=O)C6(C)CC6)C[C@H]5/C=C\CC[C@H](C)C[C@@H](C)[C@H](NC(=O)OC(C)(C)C(F)(F)F)C(=O)N4C3)nc(N3CCCC3)cc2c1` [Compound 3118, 1,1,1-trifluoro-2-methylpropan-2-yl((2R,6S,7R,9S,13aS,14aR,16aS,Z)-2-((6-methoxy-3-(pyrrolidin-1-yl)isoquinolin-1-yl)oxy)-7,9-dimethyl-14a-(((1-methylcyclopropyl)sulfonyl)carbamoyl)-5,16-dioxo-1,2,3,5,6,7,8,9,10,11,13a,14,14a,15,16,16a-hexadecahydrocyclopropa[e]pyrrolo[1,2-a][1,4]diazacyclopentadecin-6-yl)carbamate], the EC50 in assay [1] and in assay [2] was 4.82 to 103 nM in each case.

For the compound `COc1ccc2c(O[C@@H]3C[C@H]4C(=O)N[C@]5(C(=O)NS(=O)(=O)C6(C)CC6)C[C@H]5/C=C\CC[C@@H](C)C[C@@H](C)[C@H](NC(=O)OC(C)(C)C(F)(F)F)C(=O)N4C3)nc(N3CCCC3)cc2c1` [Compound 3119, 1,1,1-trifluoro-2-methylpropan-2-yl((2R,6S,7R,9R,13aS,14aR,16aS,Z)-2-((6-methoxy-3-(pyrrolidin-1-yl)isoquinolin-1-yl)oxy)-7,9-dimethyl-14a-(((1-methylcyclopropyl)sulfonyl)carbamoyl)-5,16-dioxo-1,2,3,5,6,7,8,9,10,11,13a,14,14a,15,16,16a-hexadecahydrocyclopropa[e]pyrrolo[1,2-a][1,4]diazacyclopentadecin-6-yl)carbamate], the EC50 in assay [1] and in assay [2] was less than 5.46 nM in each case.

Take `COc1ccc2c(O[C@@H]3C[C@H]4C(=O)N[C@]5(C(=O)NS(=O)(=O)C6CC6)C[C@H]5/C=C\CC[C@H](C)C[C@@H](C)[C@H](NC(=O)OC(C)(C)C)C(=O)N4C3)nc(N(C)C)cc2c1` [Compound 3120, tert-butyl ((2R,6S,7R,9S,13aS,14aR,16aS,Z)-14a-((cyclopropylsulfonyl)carbamoyl)-2-((3-(dimethylamino)-6-methoxyisoquinolin-1-yl)oxy)-7,9-dimethyl-5,16-dioxo-1,2,3,5,6,7,8,9,10,11,13a,14,14a,15,16,16a-hexadecahydrocyclopropa[e]pyrrolo[1,2-a][1,4]diazacyclopentadecin-6-yl)carbamate]: the concentration giving a half-maximal response (EC50) in assay [1] and in assay [2] was 4.82 to 103 nM each time.

What is called EC50 is the concentration giving half of the maximal effect.
